Results: ChEMBL document CHEMBL4610129, “Discovery of Novel Selective and Orally Bioavailable Phosphodiesterase-1 Inhibitors for the Efficient Treatment of Idiopathic Pulmonary Fibrosis” (J Med Chem, 2020)
pIC50: −log10 of the molar value. Active and inactive are the calls of the source. No cut-off for these calls is given here.

What was measured:
[1] = target: T1, Dual specificity calcium/calmodulin-dependent 3',5'-cyclic nucleotide phosphodiesterase 1C (Homo sapiens, UniProt Q14123); assay: Inhibition of PDE1C2 (147 to 531 residues) (unknown origin) using [3H]-cGMP substrate incubated for 15 mins by liquid scintillation counting method
[2] = Half life in rat liver microsomes; type: ADME, Microsome
[3] = target: Dual specificity calcium/calmodulin-dependent 3',5'-cyclic nucleotide phosphodiesterase 1B (Homo sapiens, UniProt Q01064); assay: Inhibition of PDE1B (146 to 506 residues) (unknown origin) using [3H]-cGMP substrate incubated for 15 mins by liquid scintillation counting method
[4] = target: High affinity cGMP-specific 3',5'-cyclic phosphodiesterase 9A (Homo sapiens, UniProt O76083); assay: Inhibition of PDE9A (181 to 506 residues) (unknown origin) using [3H]-cGMP substrate incubated for 15 mins by liquid scintillation counting method
[5] = target: T1, Dual specificity calcium/calmodulin-dependent 3',5'-cyclic nucleotide phosphodiesterase 1C; assay: Inhibition of PDE1C2 (147 to 531 residues) (unknown origin) at 100 nM using [3H]-cGMP substrate incubated for 15 mins by liquid scintillation counting method relative to control
[6] = system: Rattus norvegicus; assay: Anti-pulmonary fibrosis activity in Sprague-Dawley rat model of BLM-induced idiopathic pulmonary fibrosis assessed as reduction in end-inspiratory pause at 150 mg/kg, po dosed daily for 28 days by mka noninvasive pulmonary monitoring system based method; type: functional, organism-based
[7] = system: Rattus norvegicus; assay: Anti-pulmonary fibrosis activity in Sprague-Dawley rat model of BLM-induced idiopathic pulmonary fibrosis assessed as reduction in end-expiratory pause at 150 mg/kg, po dosed daily for 28 days by mka noninvasive pulmonary monitoring system based method; type: functional, organism-based
[8] = system: Rattus norvegicus; assay: Anti-pulmonary fibrosis activity in Sprague-Dawley rat model of BLM-induced idiopathic pulmonary fibrosis assessed as reduction in mid-expiratory flow at 150 mg/kg, po dosed daily for 28 days by mka noninvasive pulmonary monitoring system based method; type: functional, organism-based
[9] = system: Rattus norvegicus; assay: Anti-pulmonary fibrosis activity in Sprague-Dawley rat model of BLM-induced idiopathic pulmonary fibrosis assessed as reduction in peak inspiratory flow at 150 mg/kg, po dosed daily for 28 days by mka noninvasive pulmonary monitoring system based method; type: functional, organism-based
[10] = system: Rattus norvegicus; assay: Anti-pulmonary fibrosis activity in Sprague-Dawley rat model of BLM-induced idiopathic pulmonary fibrosis assessed as reduction in peak expiratory flow at 150 mg/kg, po dosed daily for 28 days by mka noninvasive pulmonary monitoring system based method; type: functional, organism-based
[11] = system: Rattus norvegicus; assay: Anti-pulmonary fibrosis activity in Sprague-Dawley rat model of BLM-induced idiopathic pulmonary fibrosis assessed as reduction in enhanced pause at 150 mg/kg, po dosed daily for 28 days by mka noninvasive pulmonary monitoring system based method; type: functional, organism-based
[12] = system: Rattus norvegicus; assay: Anti-pulmonary fibrosis activity in Sprague-Dawley rat model of BLM-induced idiopathic pulmonary fibrosis assessed as reduction in lung structural damage at 150 mg/kg, po dosed daily for 28 days by H and E staining based assay; type: functional, organism-based
[13] = system: Rattus norvegicus; assay: Anti-pulmonary fibrosis activity in Sprague-Dawley rat model of BLM-induced idiopathic pulmonary fibrosis assessed as inhibition of collagen deposition at 150 mg/kg, po dosed daily for 28 days by Masson staining based assay; type: functional, organism-based

T1 sequence (Q14123 whole entry, the tested form may be a part): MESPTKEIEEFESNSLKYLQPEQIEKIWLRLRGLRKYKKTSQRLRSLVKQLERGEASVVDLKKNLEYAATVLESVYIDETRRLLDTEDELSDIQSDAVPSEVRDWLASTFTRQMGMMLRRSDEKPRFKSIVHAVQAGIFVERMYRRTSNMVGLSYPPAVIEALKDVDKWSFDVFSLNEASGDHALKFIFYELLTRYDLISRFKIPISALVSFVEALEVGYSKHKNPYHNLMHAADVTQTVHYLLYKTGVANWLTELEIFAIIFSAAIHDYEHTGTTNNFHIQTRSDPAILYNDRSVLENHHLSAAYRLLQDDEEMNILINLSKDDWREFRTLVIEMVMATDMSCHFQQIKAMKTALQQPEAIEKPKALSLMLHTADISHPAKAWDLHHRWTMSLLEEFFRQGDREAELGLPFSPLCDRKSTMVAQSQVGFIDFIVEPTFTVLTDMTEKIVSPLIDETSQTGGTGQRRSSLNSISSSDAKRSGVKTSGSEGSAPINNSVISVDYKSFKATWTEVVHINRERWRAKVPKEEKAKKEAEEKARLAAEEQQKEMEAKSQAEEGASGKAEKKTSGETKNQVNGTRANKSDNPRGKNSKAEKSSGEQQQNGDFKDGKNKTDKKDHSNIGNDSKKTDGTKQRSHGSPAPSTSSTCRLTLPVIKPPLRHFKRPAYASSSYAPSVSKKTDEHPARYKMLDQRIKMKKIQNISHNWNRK
Sequence of Dual specificity calcium/calmodulin-dependent 3',5'-cyclic nucleotide phosphodiesterase 1B (Q01064 whole entry, the tested form may be a part): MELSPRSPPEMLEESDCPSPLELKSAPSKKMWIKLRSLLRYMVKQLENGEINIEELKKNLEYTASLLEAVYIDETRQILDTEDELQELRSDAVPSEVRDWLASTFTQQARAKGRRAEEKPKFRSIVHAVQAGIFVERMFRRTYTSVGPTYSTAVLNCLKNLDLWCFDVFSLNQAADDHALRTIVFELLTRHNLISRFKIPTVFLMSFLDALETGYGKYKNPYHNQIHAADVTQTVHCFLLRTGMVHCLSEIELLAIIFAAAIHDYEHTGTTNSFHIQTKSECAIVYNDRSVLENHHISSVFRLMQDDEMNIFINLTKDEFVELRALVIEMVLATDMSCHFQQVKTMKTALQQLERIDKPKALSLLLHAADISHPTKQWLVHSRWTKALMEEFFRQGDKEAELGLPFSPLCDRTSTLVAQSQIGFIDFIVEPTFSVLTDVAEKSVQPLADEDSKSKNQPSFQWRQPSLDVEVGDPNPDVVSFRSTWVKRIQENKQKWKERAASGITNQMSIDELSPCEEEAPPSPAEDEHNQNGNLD
Sequence of High affinity cGMP-specific 3',5'-cyclic phosphodiesterase 9A (O76083 whole entry, the tested form may be a part): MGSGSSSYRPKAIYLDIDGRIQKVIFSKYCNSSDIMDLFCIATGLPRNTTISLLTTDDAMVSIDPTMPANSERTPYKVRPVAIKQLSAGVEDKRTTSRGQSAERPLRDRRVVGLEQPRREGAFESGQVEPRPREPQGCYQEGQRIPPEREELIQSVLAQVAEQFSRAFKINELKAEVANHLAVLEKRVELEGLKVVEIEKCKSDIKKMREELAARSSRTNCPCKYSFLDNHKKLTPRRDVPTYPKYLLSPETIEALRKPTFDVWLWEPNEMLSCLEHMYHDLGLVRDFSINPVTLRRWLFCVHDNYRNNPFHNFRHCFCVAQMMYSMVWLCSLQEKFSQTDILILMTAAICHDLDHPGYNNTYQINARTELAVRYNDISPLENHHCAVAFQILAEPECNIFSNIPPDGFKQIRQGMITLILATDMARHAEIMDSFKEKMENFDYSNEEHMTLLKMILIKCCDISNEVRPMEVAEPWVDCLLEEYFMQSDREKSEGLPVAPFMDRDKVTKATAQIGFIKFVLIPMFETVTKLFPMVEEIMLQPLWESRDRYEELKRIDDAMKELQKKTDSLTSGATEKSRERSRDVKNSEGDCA

Structure (SMILES)	pIC50 [1]	half-life [2]	inhibition [5]	further results
CC(C)n1ncc2c(=O)n(C)c(N[C@H](C)c3ccc(Cl)cc3)nc21	7.24	2.2 min	–	–
C[C@@H](Nc1nc2c(cnn2C2CCCC2)c(=O)n1Cc1ccccc1)c1ccc(Cl)cc1	8.33	0.5 min	–	pIC50 [3]: 7.64; pIC50 [4]: < 5.00
CC(C)(C)n1ncc2c(=O)n(Cc3ccc(F)cc3)c(N[C@@H]3CCc4ccccc43)nc21	–	–	54%	–
CC(C)(C)n1ncc2c(=O)n(Cc3ccc(F)cc3)c(N[C@H]3CCc4ccccc43)nc21	–	–	37%	–
CCn1c(N[C@H](C)c2ccc(Cl)cc2)nc2c(cnn2C2CCCC2)c1=O	–	–	13%	–
C[C@@H](Nc1nc2c(cnn2C(C)(C)C)c(=O)n1Cc1ccccc1)c1ccc(Cl)cc1	8.82	8.2 min	–	–
C[C@H](Nc1nc2c(cnn2C(C)(C)C)c(=O)n1Cc1ccccc1)c1ccc(F)cc1	6.61	–	–	–
C[C@@H](Nc1nc2c(cnn2C(C)(C)C)c(=O)n1Cc1ccc2c(c1)OCO2)c1ccc(Cl)cc1	7.57	2.1 min	–	–
CC(C)n1ncc2c(=O)n(Cc3ccccc3)c(N[C@H](C)c3ccc(Cl)cc3)nc21	9.05	2.4 min	–	–
C[C@H](Nc1nc2c(cnn2C(C)(C)C)c(=O)n1Cc1ccccc1)c1ccc(Cl)cc1	6.80	–	–	–
C[C@@H](Nc1nc2c(cnn2C(C)(C)C)c(=O)n1Cc1ccccc1)c1ccc(F)cc1	8.59	–	–	–
Cc1ccc(=O)n(-c2ccccc2)c1	–	–	–	Activity [6]: Active; Activity [7]: Active; Activity [8]: Active; Activity [9]: Active; Activity [10]: Active; Activity [11]: Active; Activity [12]: Active; Activity [13]: Active
CC(C)n1ncc2c(=O)n(Cc3ccc4c(c3)OCO4)c(N[C@H](C)c3ccc(Cl)cc3)nc21	7.70	1.6 min	–	–
CC(C)n1ncc2c(=O)n(Cc3ccsc3)c(N[C@H](C)c3ccc(Cl)cc3)nc21	–	–	47%	–
CC1c2ccccc2CCN1c1nc2c(cnn2C(C)(C)C)c(=O)n1Cc1ccc(F)cc1 (stereo not given)	–	–	16%	–
CC(C)n1ncc2c(=O)n(Cc3ccncc3)c(N[C@H](C)c3ccc(Cl)cc3)nc21	–	–	39%	–
C[C@@H](Nc1nc2c(cnn2C2CCCC2)c(=O)[nH]1)c1ccc(Cl)cc1	–	–	–	pIC50 [3]: 7.10
CC(C)Cn1c(N[C@H](C)c2ccc(Cl)cc2)nc2c(cnn2C2CCCC2)c1=O	–	–	5%	–
C[C@@H](Nc1nc2c(cnn2C2CCCC2)c(=O)n1C)c1ccc(Cl)cc1	6.59	–	–	–
C[C@@H](Nc1nc2c(cnn2C(C)(C)C)c(=O)n1C)c1ccc(Cl)cc1	7.19	–	–	–
